Data as given in patent publication US8952024B2, “Herbicidal pyrimidone derivatives” (E I du Pont de Nemours and Company, priority 2009, dated 2015).

How the values were obtained:
Format in all cases: in vivo
[1] = system: Italian ryegrass (Lolium multiflorum); experiment: Test B pre-/postemergence plant response
How it was run: (§1)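 Steps: sow seed in loam–sand soil and spray preemergence, or grow plants in peat-based medium to 1–4 leaves (2–18 cm) and spray postemergence; formulation is non-phytotoxic solvent plus surfactant; hold in greenhouse 13–15 days; score visually vs controls, 0 = no effect, 100 = complete control.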

[2] = system: Surinam grass (Brachiaria decumbens); experiment: Test B pre-/postemergence plant response
How it was run: as §1

[3] = system: bermudagrass (Cynodon dactylon); experiment: Test B pre-/postemergence plant response
How it was run: as §1

[4] = system: blackgrass (Alopecurus myosuroides); experiment: Test B pre-/postemergence plant response
How it was run: as §1

corn (Zea mays) = experiment: Test B pre-/postemergence plant response
How it was run: as §1

[5] = system: johnsongrass (Sorghum halepense); experiment: Test B pre-/postemergence plant response
How it was run: as §1

[6] = system: lambsquarters (Chenopodium album); experiment: Test B pre-/postemergence plant response
How it was run: as §1

[7] = system: large crabgrass (Digitaria sanguinalis); experiment: Test B pre-/postemergence plant response
How it was run: as §1

[8] = system: ragweed (common ragweed, Ambrosia elatior); experiment: Test B pre-/postemergence plant response
How it was run: as §1

soybean (Glycine max) = experiment: Test B pre-/postemergence plant response
How it was run: as §1

[9] = system: velvetleaf (Abutilon theophrasti); experiment: Test B pre-/postemergence plant response
How it was run: as §1

wild oat (Avena fatua) = experiment: Test B pre-/postemergence plant response
How it was run: as §1

[10] = system: woolly cupgrass (Eriochloa villosa); experiment: Test B pre-/postemergence plant response
How it was run: as §1

[11] = system: yellow nutsedge (Cyperus esculentus); experiment: Test B pre-/postemergence plant response
How it was run: as §1

[12] = system: canarygrass (Phalaris minor); experiment: Test B postemergence plant response
How it was run: (§2)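 Visual ratings from 0 (no effect) to 100 (complete control), made against controls 13–15 days after treatment, kept in a greenhouse. Compounds were applied postemergence to potted plants at the 1- to 4-leaf stage (2–18 cm).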

[13] = system: chickweed (Stellaria media); experiment: Test B postemergence plant response
How it was run: as §2

[14] = system: windgrass (Apera spica-venti); experiment: Test B postemergence plant response
How it was run: as §2

[15] = system: winter barley (Hordeum vulgare); experiment: Test B postemergence plant response
How it was run: as §2

[16] = 31 g ai/ha, postemergence, scale 0 to 100, 0 is no effect, 100 is complete control
[17] = 62 g ai/ha, postemergence, 0 is no effect, 100 is complete control, 13 to 15 days
[18] = Postemergence, 125 g ai/ha, visual rating after 13 to 15 days, scale 0 (no effect) to 100 (complete control)
[19] = Postemergence, 250 g ai/ha, scale 0 to 100 (0 no effect, 100 complete control)
[20] = Preemergence, 31 g ai/ha, scale 0 to 100 (0 no effect, 100 complete control)
[21] = Preemergence, 62 g ai/ha, scale 0 to 100, 0 no effect, 100 complete control
[22] = Preemergence, 125 g ai/ha, scale 0 to 100, 0 no effect, 100 complete control
[23] = 250 g ai/ha, Preemergence, 0 to 100 scale

CC(C)Cc1ncc(C(=O)C2=C(O)CCCC2=O)c(=O)n1-c1ccccc1 [Compound 68]
Plant response rating, Ryegrass, Italian [1, 16]: 5 | Ryegrass, Italian plant response rating (0 to 100 scale) [1, 17]: 5 | Plant response rating, Ryegrass, Italian [1, 18]: 15 | Plant response rating, Ryegrass, Italian [1, 19]: 50 | Plant response rating, Ryegrass, Italian [1, 20]: 0 | Plant response rating, Ryegrass, Italian [1, 21]: 0 | Plant response rating, Ryegrass, Italian [1, 22]: 0 | Plant response rating, Surinam Grass [2, 16]: 25 | Surinam Grass plant response rating (0 to 100 scale) [2, 17]: 55 | Plant response rating, Surinam Grass [2, 18]: 70 | Plant response rating, Surinam Grass [2, 19]: 90 | Plant response rating, Surinam Grass [2, 20]: 45 | Plant response rating, Surinam Grass [2, 21]: 50 | Plant response rating, Surinam Grass [2, 22]: 55 | Plant response rating, Bermudagrass [3, 16]: 75 | Bermudagrass plant response rating (0 to 100 scale) [3, 17]: 75 | Plant response rating, Bermudagrass [3, 23]: 100 | Plant response rating, Bermudagrass [3, 18]: 95 | Plant response rating, Bermudagrass [3, 19]: 98 | Plant response rating, Bermudagrass [3, 20]: 95 | Plant response rating, Bermudagrass [3, 21]: 98 | Plant response rating, Bermudagrass [3, 22]: 98 | Plant response rating, Blackgrass [4, 16]: 0 | Blackgrass plant response rating (0 to 100 scale) [4, 17]: 0 | Plant response rating, Blackgrass [4, 23]: 5 | Plant response rating, Blackgrass [4, 18]: 0 | Plant response rating, Blackgrass [4, 19]: 20 | Plant response rating, Blackgrass [4, 20]: 0 | Plant response rating, Blackgrass [4, 21]: 0 | Plant response rating, Blackgrass [4, 22]: 0 | Plant response rating, Corn (corn (Zea mays); [16]): 0 | Corn plant response rating (0 to 100 scale) (corn (Zea mays); [17]): 15 | Plant response rating, Corn (corn (Zea mays); [23]): 0 | Plant response rating, Corn (corn (Zea mays); [18]): 80 | Plant response rating, Corn (corn (Zea mays); [19]): 80 | Plant response rating, Corn (corn (Zea mays); [20]): 0 | Plant response rating, Corn (corn (Zea mays); [21]): 0 | Plant response rating, Corn (corn (Zea mays); [22]): 0 | Plant response rating, Johnsongrass [5, 16]: 10 | Johnsongrass plant response rating (0 to 100 scale) [5, 17]: 10 | Plant response rating, Johnsongrass [5, 23]: 95 | Plant response rating, Johnsongrass [5, 18]: 75 | Plant response rating, Johnsongrass [5, 19]: 100 | Plant response rating, Johnsongrass [5, 20]: 0 | Plant response rating, Johnsongrass [5, 21]: 5 | Plant response rating, Johnsongrass [5, 22]: 75 | Plant response rating, Lambsquarters [6, 16]: 95 | Lambsquarters plant response rating (0 to 100 scale) [6, 17]: 98 | Plant response rating, Lambsquarters [6, 23]: 100 | Plant response rating, Lambsquarters [6, 18]: 100 | Plant response rating, Lambsquarters [6, 19]: 100 | Plant response rating, Lambsquarters [6, 20]: 98 | Plant response rating, Lambsquarters [6, 21]: 98 | Plant response rating, Lambsquarters [6, 22]: 98 | Plant response rating, Crabgrass, Large [7, 16]: 75 | Crabgrass, Large plant response rating (0 to 100 scale) [7, 17]: 90 | Plant response rating, Crabgrass, Large [7, 23]: 100 | Plant response rating, Crabgrass, Large [7, 18]: 90 | Plant response rating, Crabgrass, Large [7, 19]: 98 | Plant response rating, Crabgrass, Large [7, 20]: 65 | Plant response rating, Crabgrass, Large [7, 21]: 95 | Plant response rating, Crabgrass, Large [7, 22]: 98 | Plant response rating, Ragweed [8, 16]: 75 | Ragweed plant response rating (0 to 100 scale) [8, 17]: 80 | Plant response rating, Ragweed [8, 18]: 80 | Plant response rating, Ragweed [8, 19]: 95 | Plant response rating, Ragweed [8, 20]: 10 | Plant response rating, Ragweed [8, 21]: 75 | Plant response rating, Ragweed [8, 22]: 80 | Plant response rating, Soybean (soybean (Glycine max); [16]): 80 | Soybean plant response rating (0 to 100 scale) (soybean (Glycine max); [17]): 95 | Plant response rating, Soybean (soybean (Glycine max); [18]): 98 | Plant response rating, Soybean (soybean (Glycine max); [19]): 98 | Plant response rating, Velvetleaf [9, 16]: 95 | Velvetleaf plant response rating (0 to 100 scale) [9, 17]: 100 | Plant response rating, Velvetleaf [9, 18]: 100 | Plant response rating, Velvetleaf [9, 19]: 100 | Plant response rating, Velvetleaf [9, 20]: 95 | Plant response rating, Velvetleaf [9, 21]: 100 | Plant response rating, Velvetleaf [9, 22]: 100 | Plant response rating, Oat, Wild (wild oat (Avena fatua); [16]): 5 | Oat, Wild plant response rating (0 to 100 scale) (wild oat (Avena fatua); [17]): 20 | Plant response rating, Oat, Wild (wild oat (Avena fatua); [18]): 50 | Plant response rating, Oat, Wild (wild oat (Avena fatua); [19]): 70 | Plant response rating, Oat, Wild (wild oat (Avena fatua); [20]): 0 | Plant response rating, Oat, Wild (wild oat (Avena fatua); [21]): 0 | Plant response rating, Oat, Wild (wild oat (Avena fatua); [22]): 0 | Plant response rating, Cupgrass, Woolly [10, 16]: 10 | Cupgrass, Woolly plant response rating (0 to 100 scale) [10, 17]: 10 | Plant response rating, Cupgrass, Woolly [10, 23]: 85 | Plant response rating, Cupgrass, Woolly [10, 18]: 55 | Plant response rating, Cupgrass, Woolly [10, 19]: 75 | Plant response rating, Cupgrass, Woolly [10, 20]: 5 | Plant response rating, Cupgrass, Woolly [10, 21]: 20 | Plant response rating, Cupgrass, Woolly [10, 22]: 55 | Plant response rating, Nutsedge, Yellow [11, 16]: 0 | Nutsedge, Yellow plant response rating (0 to 100 scale) [11, 17]: 10 | Plant response rating, Nutsedge, Yellow [11, 18]: 70 | Plant response rating, Nutsedge, Yellow [11, 19]: 80 | Plant response rating, Nutsedge, Yellow [11, 20]: 0 | Plant response rating, Nutsedge, Yellow [11, 21]: 70 | Plant response rating, Nutsedge, Yellow [11, 22]: 85 | Plant response rating, Canarygrass [12, 16]: 0 | Canarygrass plant response rating (0 to 100 scale) [12, 17]: 0 | Plant response rating, Canarygrass [12, 18]: 35 | Plant response rating, Canarygrass [12, 19]: 35 | Plant response rating, Chickweed [13, 16]: 85 | Chickweed plant response rating (0 to 100 scale) [13, 17]: 90 | Plant response rating, Chickweed [13, 18]: 98 | Plant response rating, Chickweed [13, 19]: 100 | Plant response rating, Windgrass [14, 16]: 40 | Windgrass plant response rating (0 to 100 scale) [14, 17]: 50 | Plant response rating, Windgrass [14, 18]: 65 | Plant response rating, Windgrass [14, 19]: 85 | Plant response rating, Barley [15, 16]: 0 | Barley plant response rating (0 to 100 scale) [15, 17]: 0 | Plant response rating, Barley [15, 18]: 25 | Plant response rating, Barley [15, 19]: 30
